Data taken from the NIST ThermoML archive (doi:10.1016/j.jct.2012.03.003).
± gives the expanded uncertainty stated by the source.

Assay: xn = mol fraction of the nth substance listed
Settings: Liquid, Vibrating tube method

COc1cc2c(cc1O)CC1c3c(cc(O)c(OC)c3-2)CCN1C (stereo not given) [boldine] + CCO
Settings | mass density [kg/m3]
352.81 K, 16000 kPa, x1 = 0.0012 | 755.72 ± 0.91
352.81 K, 16000 kPa, x1 = 0.0136 | 781.95 ± 0.98
352.81 K, 17000 kPa, x1 = 0.0012 | 756.73 ± 0.91
352.81 K, 17000 kPa, x1 = 0.0136 | 782.94 ± 0.98
352.81 K, 18000 kPa, x1 = 0.0012 | 757.73 ± 0.92
352.81 K, 18000 kPa, x1 = 0.0136 | 783.9 ± 0.98
352.81 K, 19000 kPa, x1 = 0.0012 | 758.72 ± 0.92
352.81 K, 19000 kPa, x1 = 0.0136 | 784.85 ± 0.98
352.81 K, 20000 kPa, x1 = 0.0012 | 759.69 ± 0.92
352.81 K, 20000 kPa, x1 = 0.0136 | 785.8 ± 0.99
352.82 K, 1000 kPa, x1 = 0.0267 | 792.92 ± 0.7
352.82 K, 2000 kPa, x1 = 0.0267 | 794.02 ± 0.7
352.82 K, 3000 kPa, x1 = 0.0267 | 795.11 ± 0.7
352.82 K, 4000 kPa, x1 = 0.0267 | 796.19 ± 0.71
352.82 K, 5000 kPa, x1 = 0.0267 | 797.27 ± 0.71
352.82 K, 6000 kPa, x1 = 0.0267 | 798.34 ± 0.71
352.82 K, 7000 kPa, x1 = 0.0267 | 799.39 ± 0.71
352.82 K, 8000 kPa, x1 = 0.0267 | 800.44 ± 0.71
352.82 K, 9000 kPa, x1 = 0.0267 | 801.49 ± 0.71
352.82 K, 10000 kPa, x1 = 0.0267 | 802.51 ± 0.71
352.82 K, 11000 kPa, x1 = 0.0267 | 803.53 ± 0.72
352.82 K, 12000 kPa, x1 = 0.0267 | 804.54 ± 0.72
352.82 K, 13000 kPa, x1 = 0.0267 | 805.54 ± 0.72
352.82 K, 14000 kPa, x1 = 0.0267 | 806.51 ± 0.72
352.82 K, 15000 kPa, x1 = 0.0267 | 807.49 ± 0.73
352.82 K, 16000 kPa, x1 = 0.0267 | 808.44 ± 0.73
352.82 K, 17000 kPa, x1 = 0.0267 | 809.38 ± 0.73
352.82 K, 18000 kPa, x1 = 0.0267 | 810.32 ± 0.73
352.82 K, 19000 kPa, x1 = 0.0267 | 811.24 ± 0.74
352.82 K, 20000 kPa, x1 = 0.0267 | 812.14 ± 0.74
352.88 K, 1000 kPa, x1 = 0.0074 | 751.94 ± 0.96
352.88 K, 2000 kPa, x1 = 0.0074 | 753.18 ± 0.89
352.88 K, 3000 kPa, x1 = 0.0074 | 754.29 ± 0.89
352.88 K, 4000 kPa, x1 = 0.0074 | 755.45 ± 0.89
352.88 K, 5000 kPa, x1 = 0.0074 | 756.6 ± 0.89
352.88 K, 6000 kPa, x1 = 0.0074 | 757.75 ± 0.89
352.88 K, 7000 kPa, x1 = 0.0074 | 758.88 ± 0.9
352.88 K, 8000 kPa, x1 = 0.0074 | 760.01 ± 0.9
352.88 K, 9000 kPa, x1 = 0.0074 | 761.12 ± 0.9
352.88 K, 10000 kPa, x1 = 0.0074 | 762.21 ± 0.9
352.88 K, 11000 kPa, x1 = 0.0074 | 763.3 ± 0.9
352.88 K, 12000 kPa, x1 = 0.0074 | 764.38 ± 0.91
352.88 K, 13000 kPa, x1 = 0.0074 | 765.43 ± 0.91
352.88 K, 14000 kPa, x1 = 0.0074 | 766.48 ± 0.91
352.88 K, 15000 kPa, x1 = 0.0074 | 767.51 ± 0.91
352.88 K, 16000 kPa, x1 = 0.0074 | 768.53 ± 0.92
352.88 K, 17000 kPa, x1 = 0.0074 | 769.53 ± 0.92
352.88 K, 18000 kPa, x1 = 0.0074 | 770.52 ± 0.92
352.88 K, 19000 kPa, x1 = 0.0074 | 771.48 ± 0.92
352.88 K, 20000 kPa, x1 = 0.0074 | 772.43 ± 0.87
362.76 K, 1000 kPa, x1 = 0.0196 | 770.85 ± 0.85
362.76 K, 2000 kPa, x1 = 0.0196 | 772.05 ± 0.84
362.76 K, 3000 kPa, x1 = 0.0196 | 773.24 ± 0.85
362.76 K, 4000 kPa, x1 = 0.0196 | 774.43 ± 0.85
362.76 K, 5000 kPa, x1 = 0.0196 | 775.6 ± 0.85
362.76 K, 6000 kPa, x1 = 0.0196 | 776.76 ± 0.85
362.76 K, 7000 kPa, x1 = 0.0196 | 777.92 ± 0.85
362.76 K, 8000 kPa, x1 = 0.0196 | 779.06 ± 0.85
362.76 K, 9000 kPa, x1 = 0.0196 | 780.2 ± 0.85
362.76 K, 10000 kPa, x1 = 0.0196 | 781.28 ± 0.85
362.76 K, 11000 kPa, x1 = 0.0196 | 782.39 ± 0.85
362.76 K, 12000 kPa, x1 = 0.0196 | 783.48 ± 0.85
362.76 K, 13000 kPa, x1 = 0.0196 | 784.55 ± 0.86
362.76 K, 14000 kPa, x1 = 0.0196 | 785.61 ± 0.86
362.76 K, 15000 kPa, x1 = 0.0196 | 786.65 ± 0.86
362.76 K, 16000 kPa, x1 = 0.0196 | 787.68 ± 0.86
362.76 K, 17000 kPa, x1 = 0.0196 | 788.71 ± 0.86
362.76 K, 18000 kPa, x1 = 0.0196 | 789.69 ± 0.87
362.76 K, 19000 kPa, x1 = 0.0196 | 790.66 ± 0.87
362.76 K, 20000 kPa, x1 = 0.0196 | 791.63 ± 0.87
362.77 K, 1000 kPa, x1 = 0.0136 | 755.74 ± 0.96
362.77 K, 1000 kPa, x1 = 0.0267 | 783.02 ± 0.71
362.77 K, 2000 kPa, x1 = 0.0136 | 756.99 ± 0.96
362.77 K, 2000 kPa, x1 = 0.0267 | 784.19 ± 0.71
362.77 K, 3000 kPa, x1 = 0.0136 | 758.22 ± 0.96
